“Also recorded” adds a separate entry of the source.
Key:
Format in all cases: cell-based
[1] = tested on: 3T3-L1 cells; test: Adipocyte differentiation and fat content by Oil Red O staining, 3T3-L1 cells
Description: (§1) To obtain evidence that resveratrol affects fat metabolism in a physiologically relevant cell, we examined the effect of increasing concentrations of resveratrol on 3T3-L1 and NIH3T3 cell differentiation and fat content. 3T3-L1 or NIH3T3 cells were grown to confluence and allowed to pack in for 2 days at which point differentiation was initiated by addition of isobutylmethylxanthine, dexamethasone and insulin in the presence of vehicle (ethanol alone) or resveratrol at concentrations of 0, 12.5 and 25 μM. After 10 days of differentiation, fat content was assessed by Oil Red O staining, as described below. The results, which are shown in FIG. 12, indicate that concentrations of 25 μM or higher resveratrol decreased the quantity of cellular fat in 3T3-L1 and NIH3T3 cells. The results in NIH3T3 cells confirm the results obtained in C. elegans.
We then infected 3T3 preadipoctyes/adipocytes with pMX alone or pMX encoding PPAR-γ and examined the effect of resveratrol on 3T3 cell differentiation. 3T3-L1 and NIH3T3 cells were infected with a plasmid expressing GFP or PPAR-γ and grown to confluence. […]
(§2) 3T3-L1 and NIH3T3 cells were maintained in DMEM plus 10% calf serum. […] The staining of adipocytes with Oil Red-O and quantitation was performed as described previously (Ramirez-Zacarias J L, Castro-Munozledo F, Kuri-Harcuch W. Histochemistry. 1992 July; 97(6):493-7). […]

[2] = tested on: PPAR-γ; test: Expression of the adipogenic transcription regulator PPAR-γ in 3T3 cells; conditions: cells exposed to resveratrol during differentiation
Source text: AICAR stimulates AMPK signaling and inhibits adipogenesis in 3T3 cells. To distinguish whether the effect of resveratrol was to inhibit differentiation or mobilize fat from 3T3 cells, we examined whether resveratrol inhibited the expression of adipogenic transcription regulators such as PPAR-γ.

[3] = tested on: H4IIEC3 cells; test: Oxidation of 14C-palmitate in H4IIEC3 cells; conditions: resveratrol 10 μM in 1% DMSO, AICAR 500 μM in H2O, metformin 1 mM in H2O; 4 hours; vehicle = 1
Description: (§3) Oxidation of 14C-palmitate to acid-soluble products (modified from H4IIEC3 cells [Witters, L. A. and B. E. Kemp, Insulin activation of acetyl-CoA carboxylase accompanied by inhibition of the 5′-AMP-activated protein kinase. J Biol Chem, 1992. 267(5): p. 2864-7] and HepG2 cells were maintained as described above. Cells (10^6 cells/T25) were seeded in a T25 flask one day prior to the experiment. On the day of the experiment cells were washed with assay buffer (114 mM NaCl, 4.7 mM KCL, 1.2 mM KH2PO4, 1.2 mM MgSO4, 11 mM glucose) before labeling with 14C-palmitate (0.4 μCi/ml) in presence of vehicle, or resveratrol (10 μM), or AICAR (500 μM) for 4 hours.
(§4) At the end of incubation, the cap of each T25 flask was replaced with a stopper and a 1′×1.5″ Whatman filter paper soaked with 250 μl 2N NaOH. Each flask was injected with 2 ml of 6N HCL, placed in a horizontal position for 10 minutes and left standing overnight. The next morning, 1 ml H2O and 61 μl NaOH were added to a glass scintillation vial and the filter papers from each T25 flask were transferred to their respective vial. 10 ml Aquasol was added to each vial and allowed to stand for 2 hours, after which the vials were vortexed to dissolve the […] and counted in the scintillation counter. The results were expressed as nmols/h/106 cells and shown as the fold effect. ^14CO2 production ranged from 0.3 to 1.8 nmols/h/106 cells. The experiment was repeated three times.

[4] = tested on: HepG2 cells; test: Oxidation of 14C-palmitate in HepG2 cells; conditions: resveratrol 10 μM in 1% DMSO, AICAR 500 μM in H2O, metformin 1 mM in H2O; 4 hours; vehicle = 1
Description: as §3, §4

[5] = tested on: AMPK and ACC phosphorylation; test: Western blot of AMPK and ACC phosphorylation in mouse embryonic fibroblasts; conditions: LKB1−/− cells; 50, 100, 200 μM
Description: Similar results were also observed in mouse embryonic fibroblast (MEFs). […] Cells in the left panel were incubated overnight without serum before harvesting; the cells on the right were not incubated under serum free conditions. […] Tubulin served as a loading control.

[6] = tested on: NIH3T3 cells; test: Adipocyte differentiation and fat content by Oil Red O staining, NIH3T3 cells
Description: as §1
To further examine whether resveratrol activation of sir2 could promote fat mobilization or inhibition of differentiation in mammalian cells, we infected growing cells with wild-type SIRT1 or a deacetylase deficient form of SIRT1. […]
as §2

[7] = tested on: TNF-alpha treated adipocytes; test: Radioactive glucose uptake in TNF-alpha treated, insulin resistant adipocytes; conditions: resveratrol 5 μM or 15 μM; roziglitazone 4 μM (positive control); with TNF-alpha
Description: Adipocytes were treated with TNF-alpha to induce insulin resistance as described in Kabayama et al., Glycobiology 15:21-29 (2005) and Wu et al., Mol. Cell 3:151-8 (1999).

[8] = 10 days of differentiation, 0, 12.5 and 25 μM tested, Oil Red O

Structure (SMILES): Oc1ccc(/C=C/c2cc(O)cc(O)c2)cc1 [resveratrol, 3,5,4′-Trihydroxy-trans-stilbene]
- concentrations that decreased the quantity of cellular fat [1, 8]: ≥ 25 µM
- inhibition of 3T3 preadipocyte differentiation ([1]; cells overexpressing PPAR-γ, 0, 25 or 50 μM, eight days of differentiation): partially negated inhibition of 3T3 preadipocyte differentiation by resveratrol
- PPAR-γ RNA / expression [2]: did not show an increase in PPAR-γ RNA; also recorded: marked decrease in PPARγ expression
- 14C-CO2 production (Fold Effect) [3]: 2.3 Fold Effect
- 14C-CO2 production (Fold Effect) [4]: 6 Fold Effect
- AMPK and ACC phosphorylation [5]: still causes an upregulation of both AMPK and ACC phosphorylation
- concentrations that decreased the quantity of cellular fat [6, 8]: ≥ 25 µM
- decrease in fat content ([6]; cells expressing SIRT1 deacetylase deficient mutant (SIRT1ΔHY), 0, 12.5 or 25 μM, eight days): partially reduced
- radioactive glucose uptake / insulin sensitivity [7]: partially rescued the TNF-alpha treated adipocytes restoring insulin sensitivity

Reference: US9597347B2, “Compositions for treating obesity and insulin resistance disorders” (President and Fellows of Harvard College, priority 2003, dated 2017)
